In US12077503B2, “Substituted cyclic amides and their use as herbicides” (FMC CORPORATION, priority 2015, dated 2024):

What was measured:
Format in all cases: in vivo
[1] = system: sedge, umbrella (small-flower umbrella sedge, Cyperus difformis); assay: Test C flooded paddy test; details: Flood, 0 is no effect, 100 is complete control
Procedure, shortened: (§1)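 Compound was added directly to paddy water held 3 cm above the soil, with plants at the 2-leaf stage. Injury was scored visually versus untreated controls after 13–15 d greenhouse growth, using a 0–100 scale where 100 means complete control.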

[2] = system: barnyardgrass (Echinochloa crus-galli); assay: Test C flooded paddy test; details: Flood, 0 is no effect, 100 is complete control
Procedure, shortened: as §1

rice (Oryza sativa) = assay: Test C flooded paddy test; details: Flood, 0 is no effect, 100 is complete control
Procedure, shortened: as §1

[3] = system: ducksalad (Heteranthera limosa); assay: Test C flooded paddy test; details: Flood, 0 is no effect, 100 is complete control
Procedure, shortened: as §1

[4] = system: barnyardgrass (Echinochloa crus-galli); assay: Test A postemergence
Procedure, shortened: (§2)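 Preemergence soil spray on seeded pots or post-emergence spray on 1–2 leaf plants, in loam–sand blend. Greenhouse ~10 d. Visual rating 0–100 against untreated plants.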

[5] = system: giant foxtail (Setaria faberii); assay: Test A postemergence
Procedure, shortened: as §2

[6] = system: morningglory (Ipomoea spp.); assay: Test A postemergence
Procedure, shortened: as §2

[7] = system: velvetleaf (Abutilon theophrasti); assay: Test A postemergence
Procedure, shortened: as §2

[8] = system: pigweed (Amaranthus retroflexus); assay: Test A postemergence
Procedure, shortened: as §2

corn (Zea mays) [9] = assay: Test A postemergence
Procedure, shortened: as §2

[10] = system: wheat (Triticum aestivum); assay: Test A postemergence
Procedure, shortened: as §2

[11] = system: crabgrass, large (Digitaria sanguinalis); assay: Test A postemergence
Procedure, shortened: as §2

[12] = system: barnyardgrass (Echinochloa crus-galli); assay: Test A preemergence
Procedure, shortened: as §2

[13] = system: giant foxtail (Setaria faberii); assay: Test A preemergence
Procedure, shortened: as §2

[14] = system: morningglory (Ipomoea spp.); assay: Test A preemergence
Procedure, shortened: as §2

[15] = system: velvetleaf (Abutilon theophrasti); assay: Test A preemergence
Procedure, shortened: as §2

[16] = system: pigweed (Amaranthus retroflexus); assay: Test A preemergence
corn (Zea mays) [17] = assay: Test A preemergence
Procedure, shortened: as §2

[18] = system: wheat (Triticum aestivum); assay: Test A preemergence
Procedure, shortened: as §2

[19] = system: crabgrass, large (Digitaria sanguinalis); assay: Test A preemergence
Procedure, shortened: as §2

[20] = 500 g ai/ha, postemergence, 0 to 100 scale, 0 no effect, 100 complete control
[21] = Postemergence, 125 g ai/ha, visual injury, 0 to 100 scale (0 no effect, 100 complete control), approx. 10 d
[22] = 125 g ai/ha, preemergence, 0 to 100 scale (0 no effect, 100 complete control)
[23] = Preemergence, 500 g ai/ha, 0 is no effect, 100 is complete control

O=C1NCC(c2ccoc2)C1C(=O)Nc1ccccc1F (racemic) [Compound 356]
0: Plant response rating (scale of 0 to 100), Sedge, Umbrella ([1]; 62 g ai/ha) | Plant response rating (scale of 0 to 100), Sedge, Umbrella ([1]; 250 g ai/ha) | Plant response rating (scale of 0 to 100), Barnyardgrass ([2]; 62 g ai/ha) | Plant response rating (scale of 0 to 100), Barnyardgrass ([2]; 250 g ai/ha) | Plant response rating (scale of 0 to 100), Rice (rice (Oryza sativa); 62 g ai/ha) | Plant response rating (scale of 0 to 100), Rice (rice (Oryza sativa); 250 g ai/ha) | Plant response rating (scale of 0 to 100), Ducksalad ([3]; 62 g ai/ha) | Plant response rating (scale of 0 to 100), Ducksalad ([3]; 250 g ai/ha) | Plant response rating, Barnyardgrass [4, 20] | Plant response rating, Barnyardgrass [4, 21] | Plant response rating, Foxtail, Giant [5, 20] | Plant response rating, Foxtail, Giant [5, 21] | Plant response rating, Morningglory [6, 20] | Plant response rating, Morningglory [6, 21] | Plant response rating, Velvetleaf [7, 20] | Plant response rating, Velvetleaf [7, 21] | Plant response rating, Pigweed [8, 20] | Plant response rating, Pigweed [8, 21] | Plant response rating, Corn (corn (Zea mays) [9]; [20]) | Plant response rating, Corn (corn (Zea mays) [9]; [21]) | Plant response rating, Wheat [10, 20] | Plant response rating, Wheat [10, 21] | Plant response rating, Crabgrass, Large [11, 20] | Plant response rating, Crabgrass, Large [11, 21] | Plant response rating, Barnyardgrass [12, 22] | Barnyardgrass plant response rating (0 to 100 scale) [12, 23] | Plant response rating, Foxtail, Giant [13, 22] | Foxtail, Giant plant response rating (0 to 100 scale) [13, 23] | Plant response rating, Morningglory [14, 22] | Morningglory plant response rating (0 to 100 scale) [14, 23] | Plant response rating, Velvetleaf [15, 22] | Velvetleaf plant response rating (0 to 100 scale) [15, 23] | Plant response rating, Pigweed [16, 22] | Pigweed plant response rating (0 to 100 scale) [16, 23] | Plant response rating, Corn (corn (Zea mays) [17]; [22]) | Corn plant response rating (0 to 100 scale) (corn (Zea mays) [17]; [23]) | Plant response rating, Wheat [18, 22] | Wheat plant response rating (0 to 100 scale) [18, 23] | Plant response rating, Crabgrass, Large [19, 22] | Crabgrass, Large plant response rating (0 to 100 scale) [19, 23]
